According to BindingDB's records for patent US12234222 (Zhejiang Hisun Pharmaceutical, 2025):

Columns and labels:
[1] = target: Proto-oncogene tyrosine-protein kinase receptor Ret (Homo sapiens, UniProt P07949); assay: RET Kinase Assay
Method: The experimental steps are as follows:(1) The test compound (the compound of the present disclosure, and compound 164 in WO2018017983A1 as a control) was dissolved in 100% DMSO to a final concentration of 10 mM.(2) 4 μL of the test compound solution prepared in step (1) was dissolved with 46 μL of 100% DMSO, and the solution obtained in this step was numbered as No. 2.(3) No. 2 solution was subjected to subsequent gradient dilution with a dilution factor of 5 times (i.e. 20 μL of 100% DMSO was added to 5 μL of the compound), a total of 9 gradients, numbered 3 to 11.Note: No. 2 was not used for the dilution in step (4).(Unless otherwise specified, the following steps need to be carried out on ice)(4) The buffer provided in the kit (Cisbio, Cat. No. 62TK0PEB) was used to continuously serially dilute the solutions numbered from 3 to 11 with a dilution factor of 20 times (that is, adding 19 μL of buffer to the solutions numbered from 3 to 11). […] After the incubation, the TF-FRET mode of the microplate reader (BMG Labtech, model: FLUOStar Omega) was adopted to measure the fluorescence intensity at an excitation wavelength of 304 nm and emission wavelengths of 615 nm and […] in each well. […]

[2] = target: Vascular endothelial growth factor receptor 2 (Homo sapiens, UniProt P35968)
Chain of Vascular endothelial growth factor receptor 2 (P35968 whole entry): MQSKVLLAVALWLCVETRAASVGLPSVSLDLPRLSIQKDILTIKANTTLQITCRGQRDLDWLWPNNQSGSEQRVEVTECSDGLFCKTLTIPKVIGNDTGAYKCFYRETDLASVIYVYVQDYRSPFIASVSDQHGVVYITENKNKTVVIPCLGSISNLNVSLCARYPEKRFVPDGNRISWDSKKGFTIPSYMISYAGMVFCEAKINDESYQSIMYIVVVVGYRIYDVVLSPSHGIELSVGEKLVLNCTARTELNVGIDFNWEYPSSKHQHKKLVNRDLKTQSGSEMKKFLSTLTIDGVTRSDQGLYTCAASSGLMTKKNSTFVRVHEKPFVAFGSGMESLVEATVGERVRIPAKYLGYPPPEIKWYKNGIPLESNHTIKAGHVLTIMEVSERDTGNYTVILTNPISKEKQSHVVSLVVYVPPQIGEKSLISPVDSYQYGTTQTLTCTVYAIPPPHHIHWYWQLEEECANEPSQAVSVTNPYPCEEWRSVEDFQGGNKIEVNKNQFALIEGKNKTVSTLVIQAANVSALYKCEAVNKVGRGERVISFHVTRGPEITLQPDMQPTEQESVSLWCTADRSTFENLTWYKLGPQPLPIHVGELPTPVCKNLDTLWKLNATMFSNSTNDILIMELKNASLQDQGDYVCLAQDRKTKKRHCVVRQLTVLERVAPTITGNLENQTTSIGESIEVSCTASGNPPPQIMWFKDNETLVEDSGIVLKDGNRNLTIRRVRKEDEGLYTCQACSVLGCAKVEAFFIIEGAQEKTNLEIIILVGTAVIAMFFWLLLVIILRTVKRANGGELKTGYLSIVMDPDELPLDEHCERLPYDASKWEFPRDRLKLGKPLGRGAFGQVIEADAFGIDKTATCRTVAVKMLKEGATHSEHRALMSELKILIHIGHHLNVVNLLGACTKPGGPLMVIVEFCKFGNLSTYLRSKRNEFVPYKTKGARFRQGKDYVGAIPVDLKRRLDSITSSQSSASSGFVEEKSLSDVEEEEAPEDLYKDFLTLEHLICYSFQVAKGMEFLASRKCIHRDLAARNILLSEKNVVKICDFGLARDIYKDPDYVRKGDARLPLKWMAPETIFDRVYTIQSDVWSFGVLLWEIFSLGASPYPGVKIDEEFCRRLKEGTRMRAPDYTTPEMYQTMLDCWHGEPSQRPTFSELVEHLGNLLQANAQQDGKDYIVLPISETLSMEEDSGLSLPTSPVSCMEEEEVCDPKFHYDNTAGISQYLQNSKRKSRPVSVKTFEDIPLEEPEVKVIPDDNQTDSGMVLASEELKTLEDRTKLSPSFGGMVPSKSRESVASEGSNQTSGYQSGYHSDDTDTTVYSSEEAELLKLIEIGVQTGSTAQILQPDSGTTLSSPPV

Chain of Proto-oncogene tyrosine-protein kinase receptor Ret (P07949 whole entry): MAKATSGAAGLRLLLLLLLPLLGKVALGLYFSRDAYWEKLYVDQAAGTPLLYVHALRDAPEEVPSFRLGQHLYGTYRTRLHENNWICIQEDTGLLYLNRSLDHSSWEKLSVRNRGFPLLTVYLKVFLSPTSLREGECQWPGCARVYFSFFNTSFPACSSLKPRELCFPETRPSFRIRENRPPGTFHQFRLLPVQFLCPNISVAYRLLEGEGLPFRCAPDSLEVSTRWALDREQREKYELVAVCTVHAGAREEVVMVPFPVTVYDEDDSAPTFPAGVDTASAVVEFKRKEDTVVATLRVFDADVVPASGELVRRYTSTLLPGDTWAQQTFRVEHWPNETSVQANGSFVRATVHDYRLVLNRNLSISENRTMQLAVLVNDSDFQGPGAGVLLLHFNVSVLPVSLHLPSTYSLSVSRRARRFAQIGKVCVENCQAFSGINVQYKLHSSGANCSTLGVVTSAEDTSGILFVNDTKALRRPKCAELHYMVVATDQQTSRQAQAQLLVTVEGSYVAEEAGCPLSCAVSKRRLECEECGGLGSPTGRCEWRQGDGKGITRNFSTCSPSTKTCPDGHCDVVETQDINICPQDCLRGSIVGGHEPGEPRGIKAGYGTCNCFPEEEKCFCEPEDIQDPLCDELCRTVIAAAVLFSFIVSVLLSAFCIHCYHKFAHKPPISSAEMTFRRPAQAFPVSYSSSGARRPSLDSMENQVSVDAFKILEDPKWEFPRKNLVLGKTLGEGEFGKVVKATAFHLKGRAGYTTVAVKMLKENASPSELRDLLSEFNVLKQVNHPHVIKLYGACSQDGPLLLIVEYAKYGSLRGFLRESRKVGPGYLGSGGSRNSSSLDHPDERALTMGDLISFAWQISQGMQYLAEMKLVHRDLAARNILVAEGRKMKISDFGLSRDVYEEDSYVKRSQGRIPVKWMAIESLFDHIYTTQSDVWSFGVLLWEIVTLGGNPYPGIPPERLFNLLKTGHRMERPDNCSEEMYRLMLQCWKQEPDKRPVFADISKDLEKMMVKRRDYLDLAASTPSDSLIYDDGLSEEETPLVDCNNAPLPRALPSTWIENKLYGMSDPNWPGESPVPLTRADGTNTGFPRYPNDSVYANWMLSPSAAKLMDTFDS

Row | SMILES | IC50 [1] [nM] | IC50 [2] [nM]
1 | Cc1cc(Nc2ccnc(N3CC4CCC(C3)N4C(=O)c3ccc(-n4cc(F)cn4)nn3)n2)n[nH]1 [US12234222, Compound I-14] | 3.9 | 141
2 | Cc1cc(Nc2cc(C)[nH]n2)nc(N2CC3CCC(C2)N3C(=O)c2ccc(-n3cc(Cl)cn3)nc2)n1 [US12234222, Compound I-8] | 1.7 | 107
